The results in this text go back to patent US6762189B1, “5-pyrimidinecarboxamide derivatives and the pharmaceutical compositions containing said derivatives” (Dong Wha Pharm. Ind. Co., Ltd., priority 1999, dated 2004).

The target in one test is T1, HBV polymerase (Hepatitis B virus genotype A2 subtype adw2, UniProt P03159).
T1 construct: made in house; host or cells: E. coli
The test is described as follows: In vitro reverse transcription activity of HBV polymerase (ELISA-type, DIG/biotin nucleotides). The conditions noted are these: for inhibition at 0.01 µg/mL / inhibition at 0.1 µg/mL / inhibition at 1 µg/mL: read-out: Inhibition activity on HBV-RT (%). The class given is biochemical. The method, then:
The following in vitro experiment was performed to determine the effect of the compounds of formula 1 on the activity of HBV polymerase during reverse transcription.
The present inventors submitted application for a patent concerning HBV polymerase genetically expressed in and separated from E. coli, the process of its preparation, and the method to measure the enzyme activities (KR 94-3918, KR 96-33998). In the present experiments HBV polymerase was used which had been expressed in E. coli as stated above.
The method used in the present invention to measure in vitro reverse transcribing activities of HBV polymerase is as follows. Basic principles are the same as for ELISA. Nucleotides with biotin or digoxigenin group attached are included as substrates and anti-DIG antibodies attached to peroxidase enzyme recognize the polymerized substrates.
To the wells coated with streptavidin, 20 μl of HBV polymerase, 20 μl of reaction mixture (10 μM each of DIG-UTP and Biotin-UTP, 46 mM Tris-HCl, 266 mM KCl, 27.5 mM MgCl2, 9.2 mM DTT substrate/primer hybrid), and 20 μl of test compound (added to 1, 0.1, and 0.01 μg/ml) were added and allowed to react a 22° C. for 15 hrs. During this reaction, HBV polymerase catalyzes DNA synthesis and digoxigenin and biotin attached to nucleotides form bonds with streptavidin coated on the bottom of wells. When the reaction was done, each well was washed with 250μl of cleaning buffer (pH 7.0) for 30 seconds, which was repeated five times to remove remaining impurities. 200 μl of anti-DIG-POD antibody was added to each well and allowed to react for 1 hr at 37° C., and the wells were washed with cleaning buffer to remove impurities. 200μl each of ABTS™, a substrate of peroxidase, was then added and allowed to react at room temperature for 30 min. Absorbance was measured at 405 nm using ELISA reader.
The percentage of reduction in HBV polymerase activities for reverse transcription was calculated using the group without test compound as a control and the results are shown in Table 3.
In general terms: An ELISA detects its analyte on a solid surface through an enzyme-linked reagent.

The subject of a further test is HBV. The test is described as follows: Inhibition of HBV proliferation in HBV producing cell line HepG 2.2.15 (competitive PCR of culture supernatant). Type of test: cell-based, Hepatitis B virus. The conditions noted are these: Hepatitis B virus, HepG2.2.15, 168 h, HepG 2.2.15, one week, read-out: Inhibitory effect on the HBV proliferation, Inhibition activity on HBV-RT (%); for inhibition at 0.01 µg/mL: 0.01 μg/ml; for inhibition at 0.1 µg/mL: 0.1 μg/ml; for inhibition at 1 µg/mL: 1 μg/ml. On the procedure:
The following experiment was performed to determine inhibitory effects of compounds of formula on the proliferation of HBV producing cell line.
To test for antiviral effect, replication and proliferation of HBV were measured in HepG 2.2.15, a human liver cancer cell line.
The cell concentration was adjusted to 1×10^5 cells/ml and 1 ml was added to each well of a 24-well cell culture plate, which was then kept in a culture box for 3-4 days at 37° C. under 5% CO2 until cells grew sufficiently, changing culture medium everyday. When the cells matured sufficiently, the test compounds were added to the final concentrations of 0.01, 0.1, and 1 μg/ml. One week after the addition of test compounds, he culture solution was centrifuged at 5,000 rpm for 10 min. 25 μl of supernatant was transferred to a new tube and 5 μl of lysis solution [0.54N NaOH, 0.06% NP40] was added to each tube. After keeping the tube at 37° C. for 1 hr, 30 μl . of neutralizing solution [0.09NHCl, 0.1MTris-HCl, pH7.4] was added as a reaction solution for competitive polymerase chain reaction (PCR).
PCR was performed using genetic sequence of HBV core protein as a matrix. PCR reaction was carried out by adding 1 unit of Taq polymerase enzyme to 25 pmol of each primer, 250 μM dNTP, 5 μl of PCR reaction solution [0.54N NaOH, 0.06% NP40, 0.09N HCl, 0.1M Tris-HCl, pH 7.4].
DNA polymerized by PCR was electrophoresed on Agarose gel and quantitatively analyzed using an image analyzer (Gel Dcc 1000, Bio-Rad) in order to evaluate the effect of compounds of the present invention on the reduction of HBV proliferation.
3TC (lamivudine) was used as a positive control at the same concentrations as those of the test compounds. The percentage of reduction in HBV proliferation was calculated using the group without test compound as a control and the results are represented in Table 4.

For test [1], the target named is T2, HIV reverse transcriptase (Human immunodeficiency virus type 1 group M subtype B, UniProt P04585).
T2 construct: activities of HIV reverse transcriptase; purchased Boehringer Mannheim
The test is described as follows: In vitro HIV reverse transcriptase activity (non-radioactive reverse transcriptase assay kit). Type of test: biochemical. The method, then: The following in vitro experiments were done to determine the effect of compounds of formula 1 on the reduction of HIV enzyme activities in reverse transcription.
Non-radioactive reverse transcriptase assay kit (Boehringer Mannheim) was used in the measurement of in vitro transcriptase activities. 20 μl (40 ng) of HIV transcriptase and 20 μl of reaction mixture containing matrix-primer hybrid poly (A) oligo (dT) 15, DIG(digoxigenin)-dUTP, biotin-dUTP, and TTP were added to wells coated with streptavidin. Test compounds were also added at the final concentrations of 0.1 and 1 μg/ml and allowed to react at 37° C. for 1 hr. At this time, DNA is formed from RNA by the action of HIV transcriptase, forming bonds with streptavidin coated on the bottom of wells because of digoxigenin and biotin moieties attached to nucleotides.
When the reaction was completed, each well was washed with 250 μl. of cleaning buffer (pH 7.0) for 30 sec. five times to remove remaining impurities. 200 μl of anti-DIG-POD […] was added to each well, allowed to react at 37° C. for 1 hr and washed as above to remove impurities. 200 μl of ABTS™, a substrate for peroxidase, was added to each well and allowed to react at room temperature for 30min. Absorbance at 405 nm was then read for each solution using ELISA reader and used for quantitative determination of inhibitory effect on the HIV transcriptase activities. The percentage of reduction in the activities of HIV reverse transcriptase was calculated using the group without test compound as control and the results are represented in Table 5.

Molecules are shown by their SMILES.

T1 sequence (P03159 whole entry): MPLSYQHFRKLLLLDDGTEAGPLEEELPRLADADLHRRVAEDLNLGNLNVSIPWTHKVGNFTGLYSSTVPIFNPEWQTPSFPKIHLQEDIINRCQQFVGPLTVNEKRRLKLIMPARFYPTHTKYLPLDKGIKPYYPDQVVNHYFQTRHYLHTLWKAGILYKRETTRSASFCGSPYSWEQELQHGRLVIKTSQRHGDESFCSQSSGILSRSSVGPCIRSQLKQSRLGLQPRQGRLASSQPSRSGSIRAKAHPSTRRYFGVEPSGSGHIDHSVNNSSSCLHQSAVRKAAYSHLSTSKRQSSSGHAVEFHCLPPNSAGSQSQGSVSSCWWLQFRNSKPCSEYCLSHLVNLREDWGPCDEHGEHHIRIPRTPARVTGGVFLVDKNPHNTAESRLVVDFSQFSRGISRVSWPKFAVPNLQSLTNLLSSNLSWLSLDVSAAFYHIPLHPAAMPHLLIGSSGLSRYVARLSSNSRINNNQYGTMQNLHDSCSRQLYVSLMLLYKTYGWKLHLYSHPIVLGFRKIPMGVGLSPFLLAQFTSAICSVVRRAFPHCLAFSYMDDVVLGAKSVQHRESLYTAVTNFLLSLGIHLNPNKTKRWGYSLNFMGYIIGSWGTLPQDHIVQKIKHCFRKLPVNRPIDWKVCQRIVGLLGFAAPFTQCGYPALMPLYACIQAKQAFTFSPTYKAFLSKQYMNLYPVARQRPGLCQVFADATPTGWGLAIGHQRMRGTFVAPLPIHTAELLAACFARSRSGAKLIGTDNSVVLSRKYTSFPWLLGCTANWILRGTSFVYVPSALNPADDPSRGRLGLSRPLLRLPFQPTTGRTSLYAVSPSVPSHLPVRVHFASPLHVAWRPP

For the compound `CSc1ncc(C(N)=O)c(Nc2ccc3cn[nH]c3c2)n1` [Example 2, 4-(1H-6-Indazolylamino)-2-methylthio-5-pyrimidinecarboxamide], the inhibition at 0.01 µg/mL at HBV polymerase (0.01 μg/ml test compound) is 36%; with HBV, 20%. The inhibition at 0.1 µg/mL was determined as 55% on HBV polymerase (0.1 μg/ml test compound) and 40% with HBV. In addition, the results for the inhibition at 1 µg/mL at HBV polymerase (1 μg/ml test compound) and with HBV were 85% and 70%, respectively.

With `CSc1ncc(C(=O)N(C)CCO)c(Nc2ccc3[nH]ncc3c2)n1` [Example 9, N-hydroxyethyl-N-methyl-4-(1H-5-indazolylamino)-2-methylthio-5-pyrimidine Carboxamide], the inhibition at 0.01 µg/mL was 30% at HBV polymerase (0.01 μg/ml test compound) and 20% in the test with HBV. In addition, the values for the inhibition at 0.1 µg/mL on HBV polymerase (0.1 μg/ml test compound) and with HBV were 54% and 48%, respectively. The inhibition at 1 µg/mL on HBV polymerase (1 μg/ml test compound) is 75%; in the test on HBV, 65%. In addition, the “Inhibitory effect on the activities of HIV reverse transcriptase, Inhibition activity on HBV-RT (%)” value (“Inhibitory effect on the activities … (%)” below) in test [1] (0.1 μg/ml test compound) turned out to be 52%. The “Inhibition of HIV reverse transcriptase activity” value in test [1] (1 μg/ml test compound) was 84%.

For `Nc1ccn([C@@H]2CS[C@H](CO)O2)c(=O)n1` [Example 3TC, lamivudine, reference compound], in the test with HBV, the inhibition at 0.01 µg/mL stood at 48%, the inhibition at 0.1 µg/mL was 80% and the inhibition at 1 µg/mL was found to be 99%.

For the compound `CSc1ncc(C(=O)NN2CCOCC2)c(Nc2ccc3[nH]ncc3c2)n1` [Example 35, 4-(1H-5-indazolylamino)-2-methylthio-N-(4-morpholinyl)-5-pyrimidinecarboxamide], the inhibition at 0.01 µg/mL worked out at 46% at HBV polymerase (0.01 μg/ml test compound) and 29% with HBV. Further, the values for the inhibition at 0.1 µg/mL on HBV polymerase (0.1 μg/ml test compound) and in the test on HBV were 61% and 50%, respectively. The results for the inhibition at 1 µg/mL on HBV polymerase (1 μg/ml test compound) and in the test on HBV were 90% and 86%, respectively.

In the case of `CSc1ncc(C(=O)N(C)CCO)c(Nc2ccc3cn[nH]c3c2)n1` [Example 10, N-hydroxyethyl-N-methyl-4-(1H-6-indazolylamino)-2-methylthio-5-pyrimidinecarboxamide], on HBV polymerase (0.01 μg/ml test compound), the inhibition at 0.01 µg/mL worked out at 22%. The inhibition at 0.1 µg/mL at HBV polymerase (0.1 μg/ml test compound) came to 48%. In addition, the inhibition at 1 µg/mL at HBV polymerase (1 μg/ml test compound) turned out to be 70%. The “Inhibitory effect on the activities … (%)” value in test [1] (0.1 μg/ml test compound) is given as 47%. Further, the “Inhibition of HIV reverse transcriptase activity” value in test [1] (1 μg/ml test compound) is 80%.

On to `CSc1ncc(C(=O)NCCN2CCOCC2)c(Nc2ccc3cn[nH]c3c2)n1` [Example 20], for which the “Inhibition activity on HBV-RT (%)” value is on record as 12% on HBV polymerase (0.01 μg/ml test compound), 40% on HBV polymerase (0.1 μg/ml test compound) and 67% at HBV polymerase (1 μg/ml test compound). Besides, the “Inhibitory effect on the activities … (%)” value in test [1] (0.1 μg/ml test compound) was found to be 50%; in test [1] (1 μg/ml test compound), 89%.

`CC[C@H](CO)NC(=O)c1cnc(SC)nc1Nc1ccc2[nH]ncc2c1` [Example 11]: the “Inhibition activity on HBV-RT (%)” value on HBV polymerase (0.01 μg/ml test compound) was determined as 44%; at HBV polymerase (0.1 μg/ml test compound), 59%; on HBV polymerase (1 μg/ml test compound), 82%.

`CC[C@H](CO)NC(=O)c1cnc(SC)nc1Nc1ccc2cn[nH]c2c1` [Example 12, N-[(1R)-1-(hydroxymethyl)propyl]-4-(1H-6-indazolylamino)-2-methylthio-5-pyrimidinecarboxamide]: on HBV polymerase (0.01 μg/ml test compound), the inhibition at 0.01 µg/mL was 36%. For the same compound, the inhibition at 0.1 µg/mL on HBV polymerase (0.1 μg/ml test compound) worked out at 55%. Further, at HBV polymerase (1 μg/ml test compound), the inhibition at 1 µg/mL was 85%.

For `CCNC(=O)c1cnc(SC)nc1Nc1ccc2[nH]ncc2c1` [Example 5, N-ethyl-4-(1H-5-Indazolylamino)-2-methylthio-5-pyrimidinecarboxamide], the inhibition at 0.01 µg/mL at HBV polymerase (0.01 μg/ml test compound) stood at 20%. Besides, the inhibition at 0.1 µg/mL on HBV polymerase (0.1 μg/ml test compound) is 52%. The inhibition at 1 µg/mL at HBV polymerase (1 μg/ml test compound) came out at 70%. Moreover, the “Inhibitory effect on the activities … (%)” value in test [1] (0.1 μg/ml test compound) is 57%. For the same compound, in test [1] (1 μg/ml test compound), the “Inhibition of HIV reverse transcriptase activity” value was 80%.

Regarding `COCCNC(=O)c1cnc(SC)nc1Nc1ccc2[nH]ncc2c1` [Example 13, 4-(1H-5-indazolylamino)-N-(2-methoxyethyl)-2-methylthio-5-pyrimidinecarboxamide], the inhibition at 0.01 µg/mL at HBV polymerase (0.01 μg/ml test compound) came out at 13%. Moreover, at HBV polymerase (0.1 μg/ml test compound), the inhibition at 0.1 µg/mL was found to be 40%. Also, at HBV polymerase (1 μg/ml test compound), the inhibition at 1 µg/mL amounted to 58%.

For the compound `CSc1ncc(C(=O)NC2CC2)c(Nc2ccc3cn[nH]c3c2)n1` [Example 6, N-cyclopropyl-4-(1H-6-Indazolylamino)-2-methylthio-5-pyrimidinecarboxamide], the inhibition at 0.01 µg/mL at HBV polymerase (0.01 μg/ml test compound) worked out at 24%. Also, the inhibition at 0.1 µg/mL at HBV polymerase (0.1 μg/ml test compound) is 43%. The inhibition at 1 µg/mL on HBV polymerase (1 μg/ml test compound) is 74%. In addition, the “Inhibitory effect on the activities … (%)” value in test [1] (0.1 μg/ml test compound) was found to be 54%. Further, the “Inhibition of HIV reverse transcriptase activity” value in test [1] (1 μg/ml test compound) came out at 78%.

As to `CSc1ncc(C(=O)NCCO)c(Nc2ccc3[nH]ncc3c2)n1` [Example 7, N-(2-Hydroxyethyl)-4-(1H-5-indazolylamino)-2-methylthio-5-pyrimidinecarboxamide], the results for the inhibition at 0.01 µg/mL on HBV polymerase (0.01 μg/ml test compound) and in the test on HBV were 48% and 21%, respectively. The inhibition at 0.1 µg/mL on HBV polymerase (0.1 μg/ml test compound) turned out to be 76%; with HBV, 61%. In addition, the inhibition at 1 µg/mL was found to be 93% at HBV polymerase (1 μg/ml test compound) and 92% in the test with HBV.
